Data reported in PubChem BioAssay (NCI).
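How tested: cells in 96-well plates exposed to compound for 48 hours at five concentrations. TGI is the concentration that stops growth completely.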

Key:
Experiment in all cases: DTP human tumour cell line panel, 48 h
[1] = tested on: BT-549 breast
[2] = tested on: U251 CNS
[3] = tested on: HOP-92 NSCLC
[4] = tested on: UACC-62 melanoma
[5] = tested on: OVCAR-3 ovarian
[6] = tested on: TK-10 renal
[7] = tested on: PC-3 prostate
[8] = tested on: NCI-H226 lung
[9] = tested on: UACC-257 melanoma
[10] = tested on: SK-OV-3 ovarian
[11] = tested on: IGROV1 ovarian
[12] = tested on: HCT-116 colon
[13] = tested on: CCRF-CEM leukemia
[14] = tested on: MCF7 breast
[15] = tested on: RPMI-8226 leukemia
[16] = tested on: HT29 colon
[17] = tested on: HCT-15 colon
[18] = tested on: MDA-N
[19] = tested on: UO-31 renal
[20] = tested on: MDA-MB-435
[21] = tested on: DU-145 prostate
[22] = tested on: SK-MEL-2 melanoma
[23] = tested on: KM12 colon
[24] = tested on: SF-268 CNS
[25] = tested on: MALME-3M melanoma
[26] = tested on: SK-MEL-28 melanoma
[27] = tested on: COLO 205 colon
[28] = tested on: T-47D breast
[29] = tested on: MOLT-4 leukemia
[30] = tested on: A498 renal
[31] = tested on: SF-295 CNS
[32] = tested on: SF-539 CNS
[33] = tested on: SNB-75 CNS
[34] = tested on: OVCAR-4 ovarian
[35] = tested on: EKVX NSCLC
[36] = tested on: ACHN renal
[37] = tested on: NCI-H23 lung
[38] = tested on: NCI/ADR-RES ovarian
[39] = tested on: HL-60(TB) leukemia
[40] = tested on: CAKI-1 renal
[41] = tested on: M14 melanoma
[42] = tested on: HOP-62 NSCLC
[43] = tested on: SR leukemia
[44] = tested on: NCI-H460 lung
[45] = tested on: HCC-2998 colon
[46] = tested on: NCI-H522 lung
[47] = tested on: SN12C renal
[48] = tested on: OVCAR-5 ovarian
[49] = tested on: SNB-19 CNS
[50] = tested on: SK-MEL-5 melanoma
[51] = tested on: RXF 393 renal
[52] = tested on: A549 NSCLC
[53] = tested on: HS 578T breast
[54] = tested on: 786-0 renal
[55] = tested on: LOX IMVI melanoma
[56] = tested on: OVCAR-8 ovarian
[57] = tested on: SW-620 colon
[58] = tested on: K-562 leukemia
[59] = tested on: MDA-MB-231 breast
[60] = tested on: HOP-18 NSCLC
[61] = tested on: DMS 273 small cell lung
[62] = tested on: SNB-78 CNS
[63] = tested on: DLD-1 colon
[64] = tested on: KM20L2 colon
[65] = tested on: DMS 114 small cell lung
[66] = tested on: LXFL 529 NSCLC
[67] = tested on: M19-MEL melanoma

SMILES: Cc1nc2ccccc2n1Cc1ccc(NC(=S)Nc2ccccc2)cc1
- TGI [1]: > 100 µM
- TGI [2]: > 100 µM
- TGI [3]: > 100 µM
- TGI [4]: > 100 µM
- TGI [5]: > 100 µM
- TGI [6]: > 100 µM
- TGI [7]: > 100 µM
- TGI [8]: > 100 µM
- TGI [9]: > 100 µM
- TGI [10]: > 100 µM
- TGI [11]: > 100 µM
- TGI [12]: > 100 µM
- TGI [13]: > 100 µM
- TGI [14]: > 100 µM
- TGI [15]: > 100 µM
- TGI [16]: > 100 µM
- TGI [17]: > 100 µM
- TGI [18]: > 100 µM
- TGI [19]: > 100 µM
- TGI [20]: > 100 µM
- TGI [21]: > 100 µM
- TGI [22]: > 100 µM
- TGI [23]: > 100 µM
- TGI [24]: > 100 µM
- TGI [25]: > 100 µM
- TGI [26]: > 100 µM
- TGI [27]: > 100 µM
- TGI [28]: > 100 µM
- TGI [29]: > 100 µM
- TGI [30]: > 100 µM
- TGI [31]: > 100 µM
- TGI [32]: > 100 µM
- TGI [33]: > 100 µM
- TGI [34]: > 100 µM
- TGI [35]: > 100 µM
- TGI [36]: > 100 µM
- TGI [37]: > 100 µM
- TGI [38]: > 100 µM
- TGI [39]: > 100 µM
- TGI [40]: > 100 µM
- TGI [41]: > 100 µM
- TGI [42]: > 100 µM
- TGI [43]: > 100 µM
- TGI [44]: > 100 µM
- TGI [45]: > 100 µM
- TGI [46]: > 100 µM
- TGI [47]: > 100 µM
- TGI [48]: > 100 µM
- TGI [49]: > 100 µM
- TGI [50]: 56.6 µM
- TGI [51]: > 100 µM
- TGI [52]: > 100 µM
- TGI [53]: > 100 µM
- TGI [54]: > 100 µM
- TGI [55]: > 100 µM
- TGI [56]: > 100 µM
- TGI [57]: > 100 µM
- TGI [58]: > 100 µM
- TGI [59]: > 100 µM

SMILES: O=c1/c(=C/c2ccc3c(c2)OCO3)sc2nnc(Cc3ccccc3)n12
- TGI [2]: > 100 µM
- TGI [3]: > 100 µM
- TGI [4]: > 100 µM
- TGI [5]: > 100 µM
- TGI [6]: > 100 µM
- TGI [60]: > 100 µM
- TGI [8]: > 100 µM
- TGI [9]: > 100 µM
- TGI [10]: > 100 µM
- TGI [11]: > 100 µM
- TGI [12]: > 100 µM
- TGI [13]: > 100 µM
- TGI [15]: > 100 µM
- TGI [61]: > 100 µM
- TGI [17]: > 100 µM
- TGI [62]: > 100 µM
- TGI [63]: > 100 µM
- TGI [19]: > 100 µM
- TGI [64]: > 100 µM
- TGI [22]: > 100 µM
- TGI [23]: > 100 µM
- TGI [24]: > 100 µM
- TGI [25]: > 100 µM
- TGI [26]: > 100 µM
- TGI [27]: > 100 µM
- TGI [29]: > 100 µM
- TGI [30]: > 100 µM
- TGI [31]: > 100 µM
- TGI [32]: > 100 µM
- TGI [33]: > 100 µM
- TGI [34]: > 100 µM
- TGI [35]: > 100 µM
- TGI [36]: > 100 µM
- TGI [65]: > 100 µM
- TGI [37]: > 100 µM
- TGI [39]: > 100 µM
- TGI [40]: > 100 µM
- TGI [41]: > 100 µM
- TGI [42]: > 100 µM
- TGI [66]: > 100 µM
- TGI [44]: > 100 µM
- TGI [67]: > 100 µM
- TGI [45]: > 100 µM
- TGI [46]: > 100 µM
- TGI [47]: > 100 µM
- TGI [48]: > 100 µM
- TGI [49]: > 100 µM
- TGI [50]: > 100 µM
- TGI [51]: > 100 µM
- TGI [52]: > 100 µM
- TGI [54]: > 100 µM
- TGI [55]: > 100 µM
- TGI [56]: > 100 µM
- TGI [57]: > 100 µM
- TGI [58]: > 100 µM
